Earlier results as cited in US20030031589A1, “Control of gaseous sterilisation” (priority 2002, published 2003).
Read-outs that look alike come from different tables or passages of the source.

What was measured:
[1] = tested on: spores
[2] = high relative humidity
[3] = tested on: bacillus subtilis; conditions: aqueous solutions; 'D' values depend on concentration and temperature

CC(=O)OO [Peracetic vapour, peracetic acid]
effectiveness of vapour ([1]; RH of 20%): ineffective | effectiveness of vapour ([1]; RH of 80%): effective

C=O [formalin vapour, formaldehyde]
effectiveness of vapour vs relative humidity [2]: more effective at high relative humidity

OO [hydrogen peroxide]
sporicidal activity [3]: sporicidal
